In patent publication US10106556B2, “Heterocyclic compound” (TAKEDA PHARMACEUTICAL COMPANY LIMITED, priority 2015, dated 2018):

Target: T1, His-hMAGL (recombinant polyhistidine tagged human MAGL protein) (Homo sapiens, UniProt Q99685)
T1 construct: made in house; host or cells: E. coli BL21(DE3)
T1 sequence (Q99685 1-303): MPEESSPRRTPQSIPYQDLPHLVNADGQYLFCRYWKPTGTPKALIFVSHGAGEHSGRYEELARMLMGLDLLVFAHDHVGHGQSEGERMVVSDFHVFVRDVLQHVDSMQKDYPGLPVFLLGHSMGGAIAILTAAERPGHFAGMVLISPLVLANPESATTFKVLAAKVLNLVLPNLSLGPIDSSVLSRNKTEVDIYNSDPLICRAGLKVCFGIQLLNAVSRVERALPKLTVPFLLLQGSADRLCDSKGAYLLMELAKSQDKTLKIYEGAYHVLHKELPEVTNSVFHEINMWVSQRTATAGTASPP
Assay: Measurement of MAGL inhibitory activity (arachidonic acid production from 2-arachidonylglycerol, RapidFire-mass spectrometry)
Type: biochemical
Settings: MAGL inhibitory rate at 10 μM test compound; 60 min preincubation with His-hMAGL, 2-arachidonylglycerol substrate, 10 min reaction at room temperature
Description: Furthermore, acetonitrile (50 μL) containing 3 μM arachidonic acid-d8 (Cayman Chemical Company) was added and the mixture was stirred.
The amount of arachidonic acid in the obtained enzyme reaction mixture was calculated by measuring by RapidFire-mass spectrometry and correcting by the amount of arachidonic acid-d8. High Throughput online solid phase extraction was performed using RapidFire 300™ system (Agilent Technologies, Inc.). Samples were loaded on SPE C4 cartridge (Agilent Technologies, Inc.) and desalted with 0.2 (v/v) % acetic acid (Wako Pure Chemical Industries, Ltd.) in ultrapure water/acetonitrile (70/30, v/v) at a flow rate of 1.5 mL/min, eluted at a flow rate of 0.5 mL/min with 0.2 (v/v) % acetic acid dissolved in acetonitrile/ultrapure water (90/10, v/v), and injected into the mass spectrometry part. The injection needle was washed with ultrapure water (500 millisecond) and acetonitrile (500 millisecond) to minimize carry-over. […] The RapidFire300 system was controlled by RapidFire UI software version 3.6 (Agilent Technologies, Inc.).
The mass spectrometry of the resultant product was performed using API4000™ triple quadrupole mass spectrometer (AB SCIEX) equipped with an electrospray ion sauce (TurboIon Spray™) in a negative selected reaction monitoring (SRM) mode. The conditions of SRM are shown below. The parameters of the instrument were optimized as follows: capillary temperature 600° C., ion spray voltage −4.5 kV, collision gas 8, curtain gas 15 psi, ion source gas 1 60 psi, ion source gas 2 60 psi. The mass spectrometer was controlled by Analyst™ software version 1.5.1 (AB SCIEX). The peak area integration was analyzed using RapidFire integrator software version 3.6 (Agilent Technologies, Inc.).
MAGL inhibitory rate (%) was calculated according to the following calculation formula. (1−(arachidonic acid production amount of test compound addition group−arachidonic acid production amount of enzyme−free group)÷(arachidonic acid production amount of test compound-free group−arachidonic acid production amount of enzyme-free group))×100

Row | inhibition at 10 µM [%] | Structure (SMILES)
1 | 98 | O=C1COc2ncc(C(=O)N3CCC(COc4ccc(Cl)cc4)CC3)cc2N1 [Example 6, 7-((4-((4-chlorophenoxy)methyl)piperidin-1-yl)carbonyl)-1H-pyrido[2,3-b][1,4]oxazin-2(3H)-one]
2 | 100 | O=C1COc2ncc(C(=O)N3CCC(COc4ccccc4Cl)CC3)cc2N1 [Example 7, 7-((4-((2-chlorophenoxy)methyl)piperidin-1-yl)carbonyl)-1H-pyrido[2,3-b][1,4]oxazin-2(3H)-one]
3 | 99 | O=C1COc2ccc(C(=O)N3CCC(COc4ccccc4)CC3)cc2N1 [Example 12, 6-((4-(phenoxymethyl)piperidin-1-yl)carbonyl)-2H-1,4-benzoxazin-3(4H)-one]
4 | 99 | O=C1COc2ncc(C(=O)N3CCC(COc4cccc(Cl)c4)CC3)cc2N1 [Example 13, 7-((4-((3-chlorophenoxy)methyl)piperidin-1-yl)carbonyl)-1H-pyrido[2,3-b][1,4]oxazin-2(3H)-one]
5 | 80 | O=C1COc2ncc(C(=O)N3CC(COCc4ccccc4)C3)cc2N1 [Example 14, 7-((3-((benzyloxy)methyl)azetidin-1-yl)carbonyl)-1H-pyrido[2.3-b][1,4]oxazin-2(3H)-one]
6 | 101 | O=C1COc2ncc(C(=O)N3CCC(COc4ccc(Cl)cc4Cl)CC3)cc2N1 [Example 17, 7-((4-((2,4-dichlorophenoxy)methyl)piperidin-1-yl)carbonyl)-1H-pyrido[2,3-b][1,4]oxazin-2 (3H)-one]
7 | 100 | O=C1COc2ncc(C(=O)N3CCC(COc4cc(Cl)ccc4Cl)CC3)cc2N1 [Example 18, 7-((4-((2,5-dichlorophenoxy)methyl)piperidin-1-yl)carbonyl)-1H-pyrido[2,3-b][1,4]oxazin-2(3H)-one]
8 | 100 | O=C1COc2ncc(C(=O)N3CCC(COc4ccccc4C(F)(F)F)CC3)cc2N1 [Example 19, 7-((4-((2-(trifluoromethyl)phenoxy)methyl)piperidin-1-yl)carbonyl)-1H-pyrido [2,3-b][1,4]oxazin-2(3H)-one]
9 | 99 | O=C1COc2ncc(C(=O)N3CCC(COc4cc(F)ccc4Cl)CC3)cc2N1 [Example 21, 7-((4-((2-chloro-5-fluorophenoxy)methyl)piperidin-1-yl)carbonyl)-1H-pyrido[2,3-b][1,4]oxazin-2(3H)-one]
10 | 95 | O=C1COc2ncc(C(=O)N3CCC(COc4c(F)cccc4Cl)CC3)cc2N1 [Example 22, 7-((4-((2-chloro-6-fluorophenoxy)methyl)piperidin-1-yl)carbonyl)-1H-pyrido[2,3-b][1,4]oxazin-2(3H)-one]
11 | 100 | O=C1COc2ccc(C(=O)N3CCC(COc4ccc(Cl)cc4Cl)CC3)cc2N1 [Example 23, 6-((4-((2,4-dichlorophenoxy)methyl)piperidin-1-yl)carbonyl)-2H-1,4-benzoxazin-3(4H)-one]
12 | 101 | O=C1COc2ccc(C(=O)N3CCC(COc4ccccc4Cl)CC3)cc2N1 [Example 24, 6-((4-((2-chlorophenoxy)methyl)piperidin-1-yl)carbonyl)-2H-1,4-benzoxazin-3 (4H)-one]
13 | 100 | O=C1COc2ncc(C(=O)N3CCC(COc4cccc(Cl)c4Cl)CC3)cc2N1 [Example 25, 7-((4-((2,3-dichlorophenoxy)methyl)piperidin-1-yl)carbonyl)-1H-pyrido[2,3-b][1,4]oxazin-2(3H)-one]
14 | 101 | O=C1COc2ccc(C(=O)N3CCC(COc4ccc(F)cc4Cl)CC3)cc2N1 [Example 26, 6-((4-((2-chloro-4-fluorophenoxy)methyl)piperidin-1-yl)carbonyl)-2H-1,4-benzoxazin-3 (4H)-one]
15 | 101 | O=C1COc2ccc(C(=O)N3CCC(F)(COc4ccc(F)cc4Cl)CC3)cc2N1 [Example 27, 6-((4-((2-chloro-4-fluorophenoxy)methyl)-4-fluoropiperidin-1-yl)carbonyl)-2H-1,4-benzoxazin-3(4H)-one]
16 | 100 | O=C1Cc2ccc(C(=O)N3CCC(COc4ccccc4Cl)CC3)cc2N1 [Example 28]

Row | inhibition at 10 µM [%] | Structure (SMILES)
17 | 96 | O=C(c1ccc2oc(=O)[nH]c2c1)N1CCC(COc2ccccc2Cl)CC1 [Example 29, 5-((4-((2-chlorophenoxy)methyl)piperidin-1-yl)carbonyl)-1,3-benzoxazol-2(3H)-one]
18 | 98 | N#Cc1ccccc1OCC1CCN(C(=O)c2ccc3c(c2)NC(=O)CO3)CC1 [Example 30, 2-((1-((3-oxo-3,4-dihydro-2H-1,4-benzoxazin-6-yl)carbonyl)piperidin-4-yl)methoxy)benzonitriie]
19 | 97 | O=C1COc2ccc(C(=O)N3CCC(COc4cc(F)ccc4Cl)CC3)cc2N1 [Example 31, 6-((4-((2-chloro-5-fluorophenoxy)methyl)piperidin-1-yl)carbonyl)-2H-1,4-benzoxazin-3(4H)-one]
20 | 99 | O=C1COc2c(F)cc(C(=O)N3CCC(COc4ccc(F)cc4Cl)CC3)cc2N1 [Example 32, 6-((4-((2-chloro-4-fluorophenoxy)methyl)piperidin-1-yl)carbonyl)-8-fluoro-2H-1,4-benzoxazin-3(4H)-one]
21 | 99 | N#Cc1cc(Cl)ccc1OCC1CCN(C(=O)c2ccc3c(c2)NC(=O)CO3)CC1 [Example 33, 5-chloro-2-((1-((3-oxo-3,4-dihydro-2H-1,4-benzoxazin-6-yl)carbonyl)piperidin-4-yl)methoxy)benzonitrile]
22 | 98 | Cc1ccccc1OCC1CCN(C(=O)c2ccc3c(c2)NC(=O)CO3)CC1 [Example 34, 6-((4-((2-methylphenoxy)methyl)piperidin-1-yl)carbonyl)-2H-1,4-benzoxazin-3(4H)-one]
23 | 98 | Cc1ccc(OCC2CCN(C(=O)c3ccc4c(c3)NC(=O)CO4)CC2)c(C)c1 [Example 35, 6-((4-((2,4-dimethylphenoxy)methyl)piperidin-1-yl)carbonyl)-2H-1,4-benzoxazin-3(4H)-one]
24 | 104 | Cc1ccc(OCC2CCN(C(=O)c3ccc4c(c3)NC(=O)CO4)CC2)c(Cl)c1 [Example 36, 6-((4-((2-chloro-4-methylphenoxy)methyl)piperdin-1-yl)carbonyl)-2H-1,4-benzoxazin-3(4H)-one]
25 | 101 | Cc1cc(Cl)ccc1OCC1CCN(C(=O)c2ccc3c(c2)NC(=O)CO3)CC1 [Example 37, 6-((4-((4-chloro-2-methylphenoxy)methyl)piperidin-1-yl)carbonyl)-2H-1,4-benzoxazin-3(4H)-one]
26 | 84 | Cc1ccc(OCC2CCN(C(=O)c3ccc4c(c3)NC(=O)CO4)CC2)c(C)n1 [Example 38, 6-((4-(((2,6-dimethylpyridin-3-yl)oxy)methyl)piperidin-1-yl)carbonyl)-2H-1,4-benzoxazin-3(4H)-one]
27 | 100 | Cc1cc(C)c(OCC2CCN(C(=O)c3ccc4c(c3)NC(=O)CO4)CC2)cn1 [Example 39]
28 | 95 | Cc1ccc(OCC2CCN(C(=O)c3ccc4c(c3)NC(=O)CO4)CC2)c(Cl)n1 [Example 40, 6-((4-(((2-chloro-6-methylpyridin-3-yl)oxy)methyl)piperidin-1-yl)carbonyl)-2H-1,4-benzoxazin-3(4H)-one]
29 | 103 | O=C1COc2ccc(C(=O)N3CCC(COc4ccc(Cl)nc4Cl)CC3)cc2N1 [Example 41, 6-((4-(((2,6-dichloropyridin-3-yl)oxy)methyl)piperidin-1-yl)carbonyl)-2H-1,4-benzoxazin-3(4H)-one]
30 | 99 | O=C1COc2ccc(C(=O)N3CCC(COc4ccc(Cl)c(F)c4)CC3)cc2N1 [Example 42, 6-((4-((4-chloro-3-fluorophenoxy)methyl)piperidin-1-yl)carbonyl)-2H-1,4-benzoxazin-3(4H)-one]
31 | 100 | O=C1COc2ccc(C(=O)N3CCC(COc4ccc(Cl)c(Cl)c4)CC3)cc2N1 [Example 43, 6-((4-((3,4-dichlorophenoxy)methyl)piperidin-1-yl)carbonyl)-2H-1,4-benzoxazin-3(4H)-one]
32 | 90 | O=C1COc2ccc(C(=O)N3CCC(COc4ccc(Cl)nc4)CC3)cc2N1 [Example 44, 6-((4-(((6-chloropyridin-3-yl)oxy)methyl)piperidin-1-yl)carbonyl)-2H-1,4-benzoxazin-3(4H)-one]
